Test results: patent US11124490B2, “Autotaxin inhibitors” (UNIVERSITY OF TENNESSEE RESEARCH FOUNDATION, priority 2016, dated 2021)
Where “and” joins values, the source holds several entries; their conditions need not be identical. Equal entries are not always repeated.

Assays:
human recombinant ATX [1] = biological target: T1, human recombinant ATX (Homo sapiens (Human), UniProt Q13822); experiment: ATX inhibition, hydrolysis of FRET substrate FS-3; format: biochemical; settings: for IC50: 1 μM FS-3, 4 nM human recombinant ATX, 1 hour time point, read-out: IC50 (nM ± SD) vs FS-3
Description: (§1) ATX Generation: Human recombinant ATX was expressed as published previously, using Sf9 Spodoptera frugiperda ovary cells (Invitrogen, Carlsbad, Calif.).^13 Suspension cells were grown to a 1 liter quantity at a concentration of 1×10^6 cells/ml in Sf-900 III serum-free medium (Invitrogen) supplemented with 50 U/ml penicillin and 50 μg/ml streptomycin at 27° C. with agitation. Cells were then infected with high-titer baculovirus generated via Bac-to-Bac Baculovirus Expression System (Invitrogen) using the pCMV5 mammalian expression vector containing the C-terminal FLAG-tagged human ATX sequence (a generous gift from Dr. Junken Aoko, ohoku University, Aoba-ku, Sendai, Japan) subcloned into the pFastBacl transfer vector. […] Resultant ATX was then concentrated via centrifugation in Amicon Ultra 30,000 molecular weight cut off filter units (Millipore, Billerica, Mass.) and subsequent buffer exchange into storage buffer comprised of 50 mM Tris, pH 7.4 with 20% (v/v) ethylene glycol. Protein was held at −80° C. for long-term storage.
(§2) ATX Inhibition: ATX activity was assessed via hydrolysis of the synthetic, lipid-like FRET-based substrate FS-3 (Echelon Biosciences, Salt Lake City, Utah) or via hydrolysis of the nucleotide substrate p-nitrophenyl thymidine 5′-monophosphate (pNP-TMP) as described previously.^2 Reaction wells were loaded in 60 μl volumes in triplicate wells of half-area, black-wall 96-well plates in assay buffer consisting of 50 mM Tris, 140 mM NaCl, 5 mM KCl, 1 mM CaCl2, 1 mM MgCl2, […] BSA, pH 8.0. […] Fluorescence was read every 2 minutes for 1 hour at excitation/emission wavelengths of 485/528 nm for FS-3 hydrolysis or 405 nm absorbance for pNP-TMP hydrolysis using a FlexStation 3 microplate reader (Molecular Devices, Sunnyvale, Calif.). Data (relative fluorescence or absorbance) were then recorded as a mean value of the triplicates for each sample versus time. […] In the case of mechanism determination, the linear fluorescence data from time 10 minutes to 30 minutes were then transformed using a carboxyfluorescein standard curve to determine product concentration and plotted separately. Linear trend lines were inserted using Microsoft Excel, the slope of which represent the rates of reaction for each substrate concentration. This reaction rate data for each inhibitor concentration were then plotted against substrate (FS-3) concentration and simultaneously fitted via non-linear regression in the Michaelis-Menten equations for competitive, non-competitive, uncompetitive, and mixed-mode inhibition using GraphPad Prism version 5.0a. Mechanism of inhibition was determined by which curve fit had the best global fit (R^2 value).

human recombinant ATX [2] = biological target: T1, human recombinant ATX; experiment: ATX inhibition, hydrolysis of nucleotide substrate pNP-TMP; format: biochemical; settings: 1 mM pNP-TMP, 4 nM ATX, compound 0 to 1 μM
Description: as §1, §2

LPA1 receptor = LPA1 receptor (Homo sapiens (Human), UniProt Q92633); experiment: LPA-mediated Ca2+ mobilization, LPA1 RH7777 cells; format: cell-based; settings: for IC50: IC50 of compound in presence of EC50 concentration of LPA 18:1, read-out: EC50 or IC50 (μM), LPA1 RH7777; for Emax (% LPA), LPA1 RH7777: normalized to LPA 18:1 Emax
Description: Cell Culture: LPA1 and LPA3 RH7777 rat hepatoma cells were generated in-house as described previously^34 and maintained in DMEM supplemented with 10% FBS and 2 mM L-glutamine with 250 μg/ml G418. LPA2 MEF mouse embryonic fibroblast cells were also derived from LPA1 and LPA2 double knockout mouse embryos as described previously^35 and maintained in DMEM supplemented with 10% FBS, 2 mM L-glutamine, 100 U/ml penicillin and 100 μg/ml streptomycin. LPA4 CHO chinese hamster ovary cells were a generous gift from Dr. Takao Shimizu (Tokyo University, Tokyo, Japan) and were maintained in Ham's F12 medium supplemented with 10% FBS, 2 mM L-glutamine and 350 μg/ml G418. LPA5 B103 rate neuroblastoma cells were derived in house via lentiviral transduction of FLAG-tagged LPA5 and puromycin selection as published^36 and maintained in DMEM supplemented with 10% FBS and 0.4 μg/ml puromycin. All cells were maintained at 37° C. with 5% CO2 in a humidified atmosphere.
Calcium Mobilization: As published previously, LPAR activation leads to transient calcium mobilization. […] All cells were plated in triplicate in 96-well, black-wall plates at a density of 5×10^4 cells per well and allowed to adhere overnight. LPA1 and LPA3 RH7777 cells were plated in poly-L-lysine coated plates. LPA5 B103 cells were plated in Matrigel-coated plates. After adherence, cells were serum-deprived in Krebs buffer consisting of 10 mM HEPES, pH 7.4 with 120 mM NaCl; 5 mM KCl; 1.8 mM CaCl2; 0.62 mM MgSO4; 6 mM D-glucose. LPA1 RH7777, LPA3 RH7777 and LPA5 B103 cells were serum-deprived for 4 hours, while LPA2 MEF cells were serum-deprived for 1 hour, and LPA4 CHO cells were not serum-deprived. Fura 2-AM was then loaded for 30 minutes at a concentration of 4.5 μg/ml in Krebs buffer with 0.45% (v/v) Pluronic F-127 (and additionally 0.1% BSA and 2.5 mM Probenicid for LPA4 CHO cells), after which cells were switched to fresh Krebs buffer. […] Fluorescence corresponding to calcium mobilization was immediately monitored upon addition every 3.42 seconds over a span of 70 seconds total at excitation/emission wavelengths of 340/510 and 380/510 nm. […] GraphPad Prism version 5.0a was then used to plot the data and fit non-linear regression curves in a variable slope model in order to determine the pharmacodynamics (EC50 or IC50) of the compounds in Ca^2+ mobilization.

[3] = system: A2058 human melanoma cells; experiment: In vitro invasion assay (boyden chamber, matrigel); format: cell-based; settings: recombinant ATX plus 1 μM 18:1 LPC, 20 h, read-out: IC50 (nM) in cell invasion assay
Description: The boyden chamber assay was used to assess the effect of three of the benzene sulfonamide analogues on cell invasion of A2058 human melanoma cells in vitro. The A2058 cells invade the matrigel layer in an LPA-dependent manner. Therefore, exogenous LPC and recombinant ATX was used as a source of LPA. Firstly, the compounds were screened at 10 μM concentration alongside BMP 22, a potent ATX inhibitor^31. […] Subsequently, dose response curves for compounds 3a, 3b and 14 were generated (FIG. 13B).
In vitro invasion assay—A2058 human melanoma cell line (gift from Dr. Timothy Clair, NCI, National Institutes of Health) was cultured in Dulbecco's modified Eagle's medium (DMEM) supplemented with 10% (V/V) FBS, 100 U/mL penicillin, 100 μg/mL streptomycin and 2 mM L-glutamine (Life Technologies). Cell invasion was performed using the 24-well BD Biocoat™ tumor invasion system (BD Biosciences, 8 μm-pore size). Briefly, the matrigel coating was rehydrated with PBS at 37° C. for 2 h. After removal of PBS, 5×10^4 A2058 cells in serum-free DMEM supplemented with 0.1% BSA were plated to each upper chamber. […] The fluorescent invaded cells were measured using the FLEXstation II plate reader (Molecular Devices) at excitation and emission wavelengths of 485 and 530 nm, respectively.

Chain of LPA1 receptor (Q92633 whole entry): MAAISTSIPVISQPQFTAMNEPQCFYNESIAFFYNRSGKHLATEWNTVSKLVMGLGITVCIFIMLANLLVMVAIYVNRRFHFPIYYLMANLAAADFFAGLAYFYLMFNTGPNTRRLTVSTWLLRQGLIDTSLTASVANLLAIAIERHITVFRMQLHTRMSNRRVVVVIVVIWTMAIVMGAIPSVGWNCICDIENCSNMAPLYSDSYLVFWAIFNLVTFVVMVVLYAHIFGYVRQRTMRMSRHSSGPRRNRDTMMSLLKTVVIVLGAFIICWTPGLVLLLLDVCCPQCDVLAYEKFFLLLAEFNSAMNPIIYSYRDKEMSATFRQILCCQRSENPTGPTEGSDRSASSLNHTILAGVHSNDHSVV

Row | Compound | Mechanism (human recombinant ATX [1]; mechanism of inhibition, FS-3 0 to 10 μM, inhibitor 0, 0.5×IC50 or 2×IC50) | pNP-TMP Inhibition (human recombinant ATX [2]) | IC50 (LPA1 receptor) [µM] | Emax (% LPA), LPA1 RH7777 (LPA1 receptor) [% LPA] | IC50 [3] [nM] | fold IC50 improvement relative to screening hit 918013 (human recombinant ATX [1]) | IC50 (human recombinant ATX [1])
1 | O=C(Nc1cc(F)c(F)c(F)c1)c1cc(S(=O)(=O)N2CCOCC2)c(Cl)cc1Cl [Compound 3b, 2,4-dichloro-5-(morpholinosulfonyl)-N-(3,4,5-trifluorophenyl)benzamide] | Competitive | sparing effects and None | 9.1 | 37.99 | 528 ± 13.9 |  | 
2 | O=C(Nc1ccc(F)c(F)c1)c1cc(S(=O)(=O)N2CCOCC2)c(Cl)cc1Cl [Compound 3a, 2,4-dichloro-N-(3,4-difluorophenyl)-5-(morpholinosulfonyl)benzamide] |  | None |  |  | 1478 ± 12.3 | four-fold | 31.5 ± 2.11 nM
3 | O=C(Nc1cc(Cl)c(F)c(Cl)c1)c1cc(S(=O)(=O)N2CCOCC2)c(Cl)cc1Cl [Compound 3g, 2,4-dichloro-N-(3,5-dichloro-4-fluorophenyl)-5-(morpholinosulfonyl)benzamide] |  | None | 11.9 | 36.08 |  |  | 40.09 ± 0.33 nM
4 | O=C(Nc1cc(F)c(Cl)c(F)c1)c1cc(S(=O)(=O)N2CCOCC2)c(Cl)cc1Cl [Compound 3f, 2,4-dichloro-N-(4-chloro-3,5-difluorophenyl)-5-(morpholinosulfonyl)benzamide] |  | None | 3.96 | 38.58 |  |  | 83 nM and 83.7 nM
